Earlier results in patent US20240000694A1, “Methods and Materials for Matching Chemistry of Individuals and Human Melanin” (Northwestern University, priority 2022, published 2024).

SMILES: N[C@@H](CSSC[C@H](N)C(=O)O)C(=O)O [cystine]
- pKa of —COOH: 1.91
